Tests used:
LLC-1 (lung cancer) = test: MTT cytotoxicity assay, LLC-1; format: cell-based; conditions: LLC-1, MTT, 72 h
Method: (§1) All prepared cobalt-polypyridyl complexes were dissolved in DMSO at a final concentration of 50 mmol/L and stored at −20° C. before use. Cytotoxicity was assessed by using the 3-(4,5-dimethylthiazol-2-yl)-2,5-diphenyltetrazolium bromide (MTT) (5.0 mg/ml) assay as previously described (Wong, V. K. et al., Cell Death Dis, 2013, 4, e720). Briefly, 4×10^3 cells per well were seeded in 96-well plates before drug treatments. After overnight culture, the cells were then exposed to different concentrations of selected compounds (0.039-100 μmol/L) for 72 h. Cells without drug treatment were used as control. Subsequently, MTT (10 μL) solution was added to each well and incubated at 37° C. for 4 h followed by the addition of 100 μL solubilization buffer (10% SDS in 0.01 mol/L HCl) and overnight incubation. A570 nm was then determined in each well on the next day. The percentage of cell viability was calculated using the following formula: Cell viability (%)=Atreated/Acontrol×100. Data were obtained from three independent experiments. Cells include HeLa cells (cervical cancer), MCF-7 (breast cancer), H1299, H1975, A549 and LLC-1 (lung cancer), HepG2 and Hep3B (liver cancer) and LO2 (normal human hepatocytes).

HepG2 (liver cancer) = test: MTT cytotoxicity assay, HepG2; format: cell-based; conditions: 72 h
Method: as §1

[1] = test system: OV2008 cervical cancer cells; test: MTT cytotoxicity, OV2008 (cisplatin-sensitive); format: cell-based; conditions: 72 h
Method: as §1, with “experiments.” for “experiments. Cells include HeLa cells (cervical cancer), MCF-7 (breast cancer), H1299, H1975, A549 and LLC-1 (lung cancer), HepG2 and Hep3B (liver cancer) and LO2 (normal human hepatocytes).”
(§2) Cisplatin-sensitive or -resistant A2780, OV2008 and C13 cancer cells were provided by Prof. Benjamin Tsang (Department of Obstetrics and Gynecology and Department of Cellular and Molecular Medicine, University of Ottawa, Canada). HCT116 p53^+/+ and p53^−/− isogenic human colon cancer cells were provided by Professor Bert Vogelstein (Ludwig Center at Johns Hopkins, Howard Hughes Medical Institute, USA). All media were supplemented with 10% fetal bovine serum and the antibiotics penicillin (50 U/ml) and streptomycin (50 μg/ml; Invitrogen, Paisley, Scotland, UK). All cell cultures were incubated at 37° C. in a 5% humidified CO2 incubator.

H1299 (lung cancer) = test: MTT cytotoxicity assay, H1299; format: cell-based, human; conditions: 72 h
Method: as §1

[2] = test system: cisplatin-sensitive A2780 ovarian cancer cells; test: MTT cytotoxicity, cisplatin-sensitive A2780; format: cell-based; conditions: 72 h
Method: as §1, with “experiments.” for “experiments. Cells include HeLa cells (cervical cancer), MCF-7 (breast cancer), H1299, H1975, A549 and LLC-1 (lung cancer), HepG2 and Hep3B (liver cancer) and LO2 (normal human hepatocytes).”
as §2

H1975 (lung cancer) = test: MTT cytotoxicity assay, H1975; format: cell-based; conditions: 72 h
Method: as §1

[3] = test system: Taxol-resistant HCT8 cancer cells; test: MTT cytotoxicity, taxol-resistant HCT8; format: cell-based; conditions: for IC50: HCT8, MTT, 72 h; for Resistant Factor: HCT8, IC50 taxol-resistant over IC50 taxol-sensitive
Method: as §1, with “experiments.” for “experiments. Cells include HeLa cells (cervical cancer), MCF-7 (breast cancer), H1299, H1975, A549 and LLC-1 (lung cancer), HepG2 and Hep3B (liver cancer) and LO2 (normal human hepatocytes).”
(§3) All cells were obtained from the American Type Culture Collection (Rockville, Md., USA) unless otherwise specified. Immortalized wild-type and Atg7-deficient mouse embryonic fibroblasts (MEFs) were provided by Professor Masaaki Komatsu (Juntendo University, School of Medicine, Japan). Taxol-resistant types of A549, MCF-7, HCT-8 cancer cells, cisplatin-resistant SGC7901 cancer cells were purchased from KeyGEN BioTECH, China.

[4] = test system: cisplatin-sensitive SGC-7901 gastric cancer cells; test: MTT cytotoxicity, cisplatin-sensitive SGC-7901; format: cell-based; conditions: SGC-7901, MTT, 72 h
Method: as §1, with “experiments.” for “experiments. Cells include HeLa cells (cervical cancer), MCF-7 (breast cancer), H1299, H1975, A549 and LLC-1 (lung cancer), HepG2 and Hep3B (liver cancer) and LO2 (normal human hepatocytes).”

[5] = test system: Taxol-sensitive A549 cancer cells; test: MTT cytotoxicity, taxol-sensitive A549; format: cell-based; conditions: 72 h
Method: as §1, with “experiments.” for “experiments. Cells include HeLa cells (cervical cancer), MCF-7 (breast cancer), H1299, H1975, A549 and LLC-1 (lung cancer), HepG2 and Hep3B (liver cancer) and LO2 (normal human hepatocytes).”

[6] = test system: cisplatin-resistant SGC-7901 gastric cancer cells; test: MTT cytotoxicity, cisplatin-resistant SGC-7901; format: cell-based; conditions: for IC50: SGC-7901, MTT, 72 h; for Resistant Factor: SGC-7901, cisplatin-resistant over cisplatin-sensitive
Method: as §1, with “experiments.” for “experiments. Cells include HeLa cells (cervical cancer), MCF-7 (breast cancer), H1299, H1975, A549 and LLC-1 (lung cancer), HepG2 and Hep3B (liver cancer) and LO2 (normal human hepatocytes).”
as §3

Hep 3B (liver cancer) = test: MTT cytotoxicity assay, Hep3B; format: cell-based; conditions: 72 h
Method: as §1

[7] = test system: Taxol-sensitive MCF-7 cancer cells; test: MTT cytotoxicity, taxol-sensitive MCF-7; format: cell-based; conditions: MCF-7, MTT, 72 h
Method: as §1, with “experiments.” for “experiments. Cells include HeLa cells (cervical cancer), MCF-7 (breast cancer), H1299, H1975, A549 and LLC-1 (lung cancer), HepG2 and Hep3B (liver cancer) and LO2 (normal human hepatocytes).”

MCF-7 (breast cancer) = test: MTT cytotoxicity assay, MCF-7; format: cell-based; conditions: MCF-7, MTT, 72 h
Method: as §1

[8] = test system: HCT116 p53^+/+ colon cancer cells; test: MTT cytotoxicity, HCT116 p53+/+; format: cell-based, human; conditions: 72 h
Method: as §1, with “experiments.” for “experiments. Cells include HeLa cells (cervical cancer), MCF-7 (breast cancer), H1299, H1975, A549 and LLC-1 (lung cancer), HepG2 and Hep3B (liver cancer) and LO2 (normal human hepatocytes).”
as §2

[9] = test system: HeLa cells (cervical cancer); test: MTT cytotoxicity assay, HeLa; format: cell-based; conditions: 72 h
Method: as §1

[10] = test system: Taxol-resistant MCF-7 cancer cells; test: MTT cytotoxicity, taxol-resistant MCF-7; format: cell-based; conditions: for IC50: MCF-7, MTT, 72 h; for Resistant Factor: MCF-7, IC50 taxol-resistant over IC50 taxol-sensitive
Method: as §1, with “experiments.” for “experiments. Cells include HeLa cells (cervical cancer), MCF-7 (breast cancer), H1299, H1975, A549 and LLC-1 (lung cancer), HepG2 and Hep3B (liver cancer) and LO2 (normal human hepatocytes).”
as §3

[11] = test system: HCT116 p53^−/− colon cancer cells; test: MTT cytotoxicity, HCT116 p53-/-; format: cell-based, human
Method: as §1, with “experiments.” for “experiments. Cells include HeLa cells (cervical cancer), MCF-7 (breast cancer), H1299, H1975, A549 and LLC-1 (lung cancer), HepG2 and Hep3B (liver cancer) and LO2 (normal human hepatocytes).”
as §2

[12] = test system: cisplatin-resistant A2780 ovarian cancer cells; test: MTT cytotoxicity, cisplatin-resistant A2780; format: cell-based; conditions: for IC50: A2780, MTT, 72 h; for Resistant Factor: A2780, cisplatin-resistant over cisplatin-sensitive
Method: as §1, with “experiments.” for “experiments. Cells include HeLa cells (cervical cancer), MCF-7 (breast cancer), H1299, H1975, A549 and LLC-1 (lung cancer), HepG2 and Hep3B (liver cancer) and LO2 (normal human hepatocytes).”
as §2

[13] = test system: OV2008/C13 cervical cancer cells; test: MTT cytotoxicity, OV2008/C13 (cisplatin-resistant); format: cell-based; conditions: for Resistant Factor: OV2008/C13 over OV2008
Method: as §1, with “experiments.” for “experiments. Cells include HeLa cells (cervical cancer), MCF-7 (breast cancer), H1299, H1975, A549 and LLC-1 (lung cancer), HepG2 and Hep3B (liver cancer) and LO2 (normal human hepatocytes).”
as §2

[14] = test system: Taxol-resistant A549 cancer cells; test: MTT cytotoxicity, taxol-resistant A549; format: cell-based
Method: as §1, with “experiments.” for “experiments. Cells include HeLa cells (cervical cancer), MCF-7 (breast cancer), H1299, H1975, A549 and LLC-1 (lung cancer), HepG2 and Hep3B (liver cancer) and LO2 (normal human hepatocytes).”
as §3

A549 (lung cancer) = test: MTT cytotoxicity assay, A549; format: cell-based; conditions: 72 h
Method: as §1

[15] = test system: LO2 (normal human hepatocytes); test: MTT cytotoxicity assay, LO2; format: cell-based; conditions: 72 h
Method: as §1

[16] = test system: Taxol-sensitive HCT8 cancer cells; test: MTT cytotoxicity, taxol-sensitive HCT8; format: cell-based; conditions: 72 h
Method: as §1, with “experiments.” for “experiments. Cells include HeLa cells (cervical cancer), MCF-7 (breast cancer), H1299, H1975, A549 and LLC-1 (lung cancer), HepG2 and Hep3B (liver cancer) and LO2 (normal human hepatocytes).”

[17] = test system: cancer cells from different origins; test: MTT cytotoxicity assay, summary over cancer cell lines; format: cell-based; conditions: range over the cancer cell lines of Table 1; read-out: mean IC50 values ranging (anti-cancer potency)
Method: as §1
By contrast, the cytotoxicity was lower in LO2 normal human hepatocytes. […]

SMILES | IC50 (LLC-1 (lung cancer)) | IC50 (HepG2 (liver cancer)) | IC50 [1] | IC50 (H1299 (lung cancer)) | IC50 [2] | IC50 (H1975 (lung cancer)) | IC50 [3] | Resistant Factor [3] | IC50 [4] | IC50 [6] | Resistant Factor [6] | IC50 (Hep 3B (liver cancer)) | IC50 [7] | IC50 (MCF-7 (breast cancer)) | IC50 [9] | IC50 [10] | Resistant Factor [10] | IC50 [12] | Resistant Factor [12] | Resistant Factor [13] | other results
COc1ccnc(-c2cc(OC)ccn2)c1.COc1ccnc(-c2cc(OC)ccn2)c1.COc1ccnc(-c2cc(OC)ccn2)c1.F[P-](F)(F)(F)(F)F.F[P-](F)(F)(F)(F)F.F[P-](F)(F)(F)(F)F.[Co+3] [complex (VII), [Co^III(4,4′-(OMe)2-Bpy)3](PF6)3] | 8.71 µM | 15.4 µM | 14 µM | 8.71 µM | 24 µM | 9.31 µM | 1.04 µM | 0.24 | 21.6 µM | 20.7 µM | 0.96 | 5.33 µM | 9.45 µM | 10.8 µM | 12.8 µM | 6.28 µM | 0.66 | 27 µM | 1.13 | 1.45 | IC50 [5]: 15 µM; IC50 [8]: 77.8 µM; Resistant Factor ([11]; HCT116 p53^−/− over HCT116 p53^+/+): 0.53; IC50 ([11]; MTT, 72 h): 41.3 µM; IC50 ([13]; OV2008/C13, MTT, 72 h): 20.3 µM; IC50 ([14]; A549, MTT, 72 h): 2.85 µM; Resistant Factor ([14]; A549, IC50 taxol-resistant over IC50 taxol-sensitive): 0.19; IC50 (A549 (lung cancer)): 18.6 µM; IC50 [15]: 20.6 µM; IC50 [16]: 4.3 µM
CCCCCCCCCc1ccnc(-c2cc(CCCCCCCCC)ccn2)c1.CCCCCCCCCc1ccnc(-c2cc(CCCCCCCCC)ccn2)c1.CCCCCCCCCc1ccnc(-c2cc(CCCCCCCCC)ccn2)c1.F[P-](F)(F)(F)(F)F.F[P-](F)(F)(F)(F)F.F[P-](F)(F)(F)(F)F.[Co+3] [complex (VIII), [Co^III(4,4′-(C9H19)2-Bpy)3](PF6)3] | 10.4 µM | 26 µM | 49.4 µM | 26.7 µM | 30.2 µM | 24.2 µM | 41.1 µM | 0.73 | 36.3 µM | 35.9 µM | 0.99 | 54.1 µM | 28.5 µM | 37.4 µM | 21.3 µM | 11.1 µM | 0.39 | 29.1 µM | 0.96 | 1.87 | IC50 [17]: 10.4 to 82.8 µM; IC50 (A549 (lung cancer)): 82.8 µM; IC50 [15]: 40.2 µM; IC50 [16]: 56.4 µM

Reference: US9895338B1, “Cobalt-polypyridyl complex for treatment of cancer, a pharmaceutical composition and a kit comprising it” (Macau University of Science and Technology, priority 2016, dated 2018)
